Two molecules from patent US20050058665A1, “Identification of virulence determinants activators in prokaryotic pathogens” (Boston Medical Center Corporation, priority 1998, published 2005) can be followed below.

For one series, the target named is T1, DtxR (Corynebacterium diphtheriae, UniProt P0DJL7).
T1 construct: expressed in transfected cells; host or cells: E. coli TOP10/λRS65T/pSC6/pRDA
T1 sequence (P0DJL7 1-226): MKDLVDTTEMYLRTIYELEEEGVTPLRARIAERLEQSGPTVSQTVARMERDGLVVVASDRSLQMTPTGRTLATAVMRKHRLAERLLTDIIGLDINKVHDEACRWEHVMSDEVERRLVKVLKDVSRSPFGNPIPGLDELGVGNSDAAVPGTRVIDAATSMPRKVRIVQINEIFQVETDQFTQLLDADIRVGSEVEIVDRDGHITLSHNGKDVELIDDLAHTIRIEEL
The series is described as follows: PSDT system, chloramphenicol resistance phenotype of the indicator strain. It is filed as cell-based. To be noted: E. coli TOP10/λRS65T/pSC6/pRDA; DP added to growth medium. An excerpt: Development of the PSDT System. The PSDT system, which consists of a lysogenic E. coli TOP1O host strain carrying the reporter gene cat on an integrated λ phage, λRS65T, and a set of detector plasmids, is illustrated in FIG. 1. Expression of cat on λRS65T is controlled by the tetA promoter/operator (tetAPO), and, in the absence of the tetracycline repressor (TetR), E. coli TOP10/λRS65T is resistant to chloramphenicol (Cm^R).
We next constructed the detector plasmid pSC6, which carries the tetR gene under the control of the diphtheria toxPO. When pSC6 is transformed into E. coli TOP10/λRS65T, the bacterial host strain becomes Cm-sensitive (Cm^S) by virtue of the constitutive expression of tetR, which recognizes and binds to the tetAO and represses cat gene expression. However, if a functional dtxR allele is introduced into the bacterial host on a second compatible plasmid, PRDA, the interaction between DtxR and the toxO will repress the expression of tetR, and the bacterial host, E. coli TOP10/λRS65T/pSC6/pRDA, then will regain its CM^rphenotype.

In another series the test system is toxPO-lacZ. The experiment in a line: β-galactosidase assay in toxPO-lacZ reporter strain. To be noted: E. coli DH5α/λRS45 toxPO; LB broth, absence or presence of increasing concentrations of DP (up to 250 μM). In kind it is cell-based. As for the experimental part: β-Galactosidase Assay. β-galactosidase activity was measured essentially as described by Miller (Miller, J. H. (1972) Experiments in Molecular Genetics (Cold Spring Harbor Lab. Press, Plainview, N.Y.)). In brief, 0.5 ml of an overnight culture at ^A600 of =1.0 were lysed by the addition of lysis mix (chloroform:10% SDS, 2:1), vortexing the mixture for 10 sec and transferring 200 μl to 800 ul lacZ buffer (60 mM Na2HPO4/40 mM NaH2PO4/10 mM KCl/1 mM MgSO4/50 mM β-mercaptoethanol). The reaction was initiated by adding 200 μl of o-nitrophenyl β-D-galactopyranoside (Sigma) (4 mg/ml). After incubation at room temperature (5 min-1 hr), the reaction was stopped by the addition of 0.5 ml of 1M sodium carbonate. Absorbance was measured at 420 and 550 nm, and β-galactosidase units were calculated according to Miller, supra.
The resulting plasmids were designated pDM2, pDM3, pDM11, and pDM5, respectively. The pDM series of plasmids then were transformed individually into E. coli DH5α/λRS45 toxPO. This reporter strain carries a transcriptional fusion in which the lacZ gene is under the control of the diphtheria toxPO, toxPO-lacZ, and, as a result, the synthesis of β-galactosidase is regulated by their respective dtxR gene products. Individual strains were grown in LB broth supplemented with appropriate antibiotics in either the absence or presence of increasing concentrations of DP. […]

Consider `c1ccc(-c2ccccn2)nc1` [DP, 2,2′-dipyridyl], for which the chloramphenicol resistance phenotype result on DtxR is listed as “phenotypic conversion from Cm^R to Cm^S”.

B1: wild-type DtxR (protein, UniProt P0DJL7 1-226, looked up)
Diphtheria toxin repressor: T1 sequence (P0DJL7 1-226)
Regarding B1, the β-galactosidase activity entry with toxPO-lacZ is on record as “β-galactosidase activity increases”.
